Laboratory results as given in patent publication US20220041641A1, “QUATERNARY AMMONIUM SALTS AS INHIBITORS OF TRIMETHYLAMINE PRODUCTION” (Senda Biosciences, Inc., priority 2018, published 2022).

What was measured:
[1] = assay type: in vitro ADME; conditions: simulated gi fluid, 1 µM, pH 1.6
Protocol: This assay was used to assess the stability of a conjugate in a stomach.
Medium was prepared by dissolving 2 g of sodium chloride in 0.6 L in ultrapure water (MilliQ®, Millipore Sigma, Darmstadt, Germany). The pH was adjusted to 1.6 with 1N hydrochloric acid, and the volume was then adjusted to 1 L with purified water.
60 mg FaSSIF powder (Biorelevant™, London, UK) were dissolved in 500 mL buffer (above). Pepsin was added (0.1 mg/mL) (Millipore Sigma, Darmstadt, Germany), and the solution was stirred. The resulting SGF media were used fresh for each experiment.
Test compounds were dissolved in DMSO stock to 1 mM. An aliquot of the DMSO stock solution was removed and diluted in the SGF Media in 15 mL falcon tubes to generate a total compound concentration of 1 μM. A 1 mL aliquot was immediately removed and diluted once with 1 volume of acetonitrile for T0 timepoint. The mixture was sealed and mixed at 37° C. in an incubator. Aliquots (1 mL) were removed at regular intervals and immediately quenched by the addition of 1 volume of acetonitrile. The resulting samples were analyzed by LCMS to determine degradation rates in SGF.

[2] = Caco-2 permeability assay; assay type: in vitro ADME; conditions: human, Caco-2, pH 7.4
[3] = assay type: in vitro ADME; conditions: 1 µM
Protocol: This assay was used to assess the stability of a conjugate in a large intestine.
All experiments were performed in an anaerobic chamber containing 90% nitrogen, 5% hydrogen and 5% carbon dioxide. Colonic material was resuspended as a slurry (15% w/v final concentration) in pre-reduced, anaerobically sterilized dilution blanks (Anaerobe Systems AS-908). The colonic material was then inoculated into 96 well plates containing YCFAC media (Anaerobe Systems AS-680, 6.7 μL slurry into 1 mL total media). A compound was added to each individual well to reach a final analyte concentration of 1 μM, and the material was mixed by pipetting. Each sample was removed after set timepoints (0, 120, 240, 480, 1440, 2880 minutes after initiation of the assay), quenched with acetonitrile containing internal standard, and analyzed by LCMS.

CC(=O)OC[C@H]1O[C@@H](OCC[N+](C)(C)C2CC2)[C@H](OC(C)=O)[C@@H](OC(C)=O)[C@@H]1OC(C)=O.[I-] [Compound 80, N,N-dimethyl-N-(2-{[(3R,4S,5R,6R)-3,4,5-tris(acetyloxy)-6-[(acetyloxy)methyl]oxan-2-yl]oxy}ethyl)cyclopropanaminium Iodide]
Assay 1- FaSSGF Stability: % Remaining at 1 hr [1]: 145.32%
Papp A→B at 2 h, 1 µM [2]: 0.28 ×10⁻⁶ cm/s
Papp B→A at 2 h, 1 µM [2]: 0.313 ×10⁻⁶ cm/s
Assay 3- Colonic Material Stability Assay % Remaining at 24 hr [3]: 25%
